From US20260216170A1, “TETRAHYDROISOQUINOLINE HETEROBIFUNCTIONAL BCL-XL DEGRADERS” (Treeline Biosciences, Inc., priority 2023, published 2026) come the findings set out here.

The target of the test is T1, Human BCL-XL protein (N-terminal HiBiT tagged BCL-XL expressed in HT1080 cells) (Homo sapiens, UniProt Q07817).
T1 construct: expressed in transfected cells; host or cells: HT-1080 (ATCC CCL-121), stably transduced with lentivirus pLV-UBC-N-HiBiT-BCL-XL-PGK-puro and selected with puromycin
The test can be described thus: HiBiT Based Degradation Assay. The format is cell-based. To be noted: 24 hours incubation; for DC50: BCL-XL degradation, HT1080 cells expressing N-HiBiT-BCL-XL, normalized with DMSO control, geometric mean for multiple data points, read-out: EC50 (24 h); for Ymin (24 h): bottom of BCL-XL degradation curve (remaining HiBiT-BCL-XL signal vs DMSO control), HT1080 cells. Summed up:
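BCL-XL degradation was read as Nano-Glo HiBiT lytic luminescence relative to DMSO after a 24 h compound treatment of HT1080 cells carrying stably integrated N-HiBiT-BCL-XL. EC50 values come from four-parameter logistic curves, with the hook-curve minimum fixed as bottom, and are geometric means where tested repeatedly.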

T1 sequence (Q07817 whole entry): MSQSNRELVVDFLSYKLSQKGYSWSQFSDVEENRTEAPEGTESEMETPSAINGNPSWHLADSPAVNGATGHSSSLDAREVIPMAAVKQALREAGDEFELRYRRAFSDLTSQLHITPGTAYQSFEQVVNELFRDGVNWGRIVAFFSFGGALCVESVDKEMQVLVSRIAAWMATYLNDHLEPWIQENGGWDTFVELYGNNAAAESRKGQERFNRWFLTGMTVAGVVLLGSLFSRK

`Cn1nc(C2CCC(=O)NC2=O)c2ccc(NC(=O)CN3CCC4(CC3)CC(COc3cccc(-c5ccc(N6CCc7ccnc(C(=O)Nc8nc9ccccc9s8)c7C6)nc5C(=O)O)c3C(F)(F)F)C4)cc21` (stereo not shown) [Compound 161, 6-[8-(1,3-benzothiazol-2-ylcarbamoyl)-3,4-dihydro-1H-2,7-naphthyridin-2-yl]-3-[3-[[7-[2-[[3-(2,6-dioxo-3-piperidyl)-1-methyl-indazol-6-yl]amino]-2-oxo-ethyl]-7-azaspiro[3.5]nonan-2-yl]methoxy]-2-(trifluoromethyl)phenyl]pyridine-2-carboxylic acid]: the DC50 was 10 to 100 nM and the “Ymin (24 h)” value is on record as “B (30% ≤ Ymin < 50%)”.
In the case of `Cn1nc(C2CCC(=O)NC2=O)c2ccc(NC(=O)CN3CCC4(CC3)CC(COc3cccc(-c5ccc(N6CCc7cccc(C(=O)Nc8nc9ccccc9s8)c7C6)nc5C(=O)O)c3C(F)(F)F)C4)nc21` (stereo not shown) [Compound 147], the DC50 was in the range of 10 to 100 nM and the “Ymin (24 h)” value is listed as “B (30% ≤ Ymin < 50%)”.
In the case of `C[C@H](CCC1CCN(CC(=O)Nc2ccc3c(C4CCC(=O)NC4=O)nn(C)c3c2)CC1)Oc1ccc(-c2ccc(N3CCc4cccc(C(=O)Nc5nc6ccccc6s5)c4C3)nc2C(=O)O)c(C(F)(F)F)c1` (single isomer, unassigned) [Compound 138b], the DC50 is 10 to 100 nM and the “Ymin (24 h)” value was “B (30% ≤ Ymin < 50%)”.
On to `COc1c(NC(=O)CN2CC[C@@H](CCCOc3cccc(-c4ccc(N5CCc6cccc(C(=O)Nc7nc8ccccc8s7)c6C5)nc4C(=O)O)c3C)C[C@H]2C)ccc2c(C3CCC(=O)NC3=O)nn(C)c12` (stereo partly shown) [Compound 208d], for which the DC50 was 10 to 100 nM and the “Ymin (24 h)” value is given as “B (30% ≤ Ymin < 50%)”.
In the case of `Cc1c(OCC2CC3(CCN(CC(=O)Nc4ccc5c(C6CCC(=O)NC6=O)nn(C)c5c4C(F)(F)F)CC3)C2)cccc1-c1ccc(N2CCc3cccc(C(=O)Nc4nc5ccccc5s4)c3C2)nc1C(=O)O` (stereo not shown) [Compound 137], the DC50 was 10 to 100 nM and the “Ymin (24 h)” value was “C (50% ≤ Ymin < 70%)”.
In the case of `COc1c(NC(=O)CN2CCC3(CC2)CC(COc2cccc(-c4ccc(N5CCc6cccc(C(=O)Nc7nc8ccccc8s7)c6C5)nc4C(=O)O)c2C)C3)ccc2c(C3CCC(=O)NC3=O)nn(C)c12` (stereo not shown) [Compound 127], the DC50 was in the range of 10 to 100 nM and the “Ymin (24 h)” value is listed as “A (Ymin < 30%)”.
With `COc1c(NC(=O)CN2CCC3(CC2)CC(COc2cccc(-c4ccc(N5CCc6ccnc(C(=O)Nc7nc8ccccc8s7)c6C5)nc4C(=O)O)c2C(F)(F)F)C3)ccc2c(C3CCC(=O)NC3=O)nn(C)c12` (stereo not shown) [Compound 162, 6-[8-(1,3-benzothiazol-2-ylcarbamoyl)-3,4-dihydro-1H-2,7-naphthyridin-2-yl]-3-[3-[[7-[2-[[3-(2,6-dioxo-3-piperidyl)-7-methoxy-1-methyl-indazol-6-yl]amino]-2-oxo-ethyl]-7-azaspiro[3.5]nonan-2-yl]methoxy]-2-(trifluoromethyl)phenyl]pyridine-2-carboxylic acid], the DC50 is 10 to 100 nM and the “Ymin (24 h)” value was “B (30% ≤ Ymin < 50%)”.
On to `COc1c(NC(=O)CN2CCC3(CC2)CC(Oc2ccc(-c4ccc(N5CCc6ccnc(C(=O)Nc7nc8ccccc8s7)c6C5)nc4C(=O)O)c(C(F)(F)F)c2)C3)ccc2c(C3CCC(=O)NC3=O)nn(C)c12` (stereo not shown) [Compound 171, 6-(8-(benzo[d]thiazol-2-ylcarbamoyl)-3,4-dihydro-2,7-naphthyridin-2(1H)-yl)-3-(4-((7-(2-((3-(2,6-dioxopiperidin-3-yl)-7-methoxy-1-methyl-1H-indazol-6-yl)amino)-2-oxoethyl)-7-azaspiro[3.5]nonan-2-yl)oxy)-2-(trifluoromethyl)phenyl)picolinic acid], for which the DC50 lay within 10 to 100 nM and the “Ymin (24 h)” value is reported as “B (30% ≤ Ymin < 50%)”.
